Converted amounts (≈) assume the structure as drawn.
Legend:
[1] = test system: Genetically sound-sensitive male mice; test: Audiogenic seizures in mice; type: in vivo; details: audiogenic seizure-susceptible mice, i.p.
Source text: Audiogenic seizures in mice: Genetically sound-sensitive male mice (16-28 g; n=10 per group), responding with wild running, clonic and tonic convulsions to an acoustic stimulation, were used. Audiogenic seizures were induced by an acoustic stimulus (90 dB, 10-20 kHz) applied for 30 s.

rat hippocampal slices [2] = details: background statement; cited from earlier work
[3] = test system: fully amygdala-kindled rats; test: Fully amygdala-kindled rats; type: in vivo; details: for dose significantly reducing after-discharge duration: highest dose tested
rat hippocampal slices [4] = test: Epileptiform responses in hippocampal slices (field potentials in CA3 area); type: cell-based, Sprague-Dawley rats; set-up: effect on rate of spontaneous field bursting: dose or concentration left out as unconfirmed; details: for effect on rate of spontaneous field bursting: HKLCF; for effect on epileptiform responses (evoked PS1 amplitude, repetitive PSs): HKLCF perfusion (K+ 7.5 mM; Ca2+ 0.5 mM), fimbrial stimulation
Procedure: The effect of brivaracetam on epileptiform responses induced by high-K+/low-Ca2+ concentrations or by bicuculline was examined in transverse hippocampal slices prepared from Sprague-Dawley rats according to previously reported standard procedures. The epileptiform responses were induced by passing from a normal perfusion of artificial cerebrospinal fluid (ACSF) (K+3 mM; Ca2+2.4 mM) to either high-K+/low-Ca2+ fluid (HKLCF) (K+7.5 mM; Ca2+0.5 mM) or to […] bicuculline methiodide (BMI)-containing ACSF.
Extracellular field potentials (FPs) were recorded in the CA3 area of the slices with 2 M NaCl-filled glass microelectrodes. The evoked FPs were recorded at 10-min intervals in response to fimbrial stimulation with constant current rectangular pulses that elicit a single population spike (PS) of 50-75% of the maximal amplitude when the slice is in ACSF. In the HKLCF model, 2 min of spontaneous activity were also recorded, in the middle of each 10-min interval between the recordings of evoked responses.
Either brivaracetam or levetiracetam was added to the bathing fluid of the slices 20 min before shifting from ACSF to either HKLCF or […] BMI-containing ACSF, and was kept in the perfusion fluid throughout the experiment.

mice [5] = test: Chemically induced seizures in mice (pentylenetetrazol); type: in vivo; details: i.p. 30 min before seizure induction; higher ED50 values than audiogenic model
Procedure: The dose was selected based on dose-effect curves in saline-treated animals as the convulsive dose inducing clonic convulsions of all four extremities in 97% of the animals. Immediately after administration of the chemoconvulsant, the mice were placed individually in small plastic cages (25 13 8 cm) and observed for the presence of clonic convulsions in all four extremities, for 60 min. The occurrence of tonic convulsions (hindlimb extension) and mortality was also recorded during this interval.

mice [6] = test: Maximal electroshock in mice; type: in vivo; details: i.p. 30 min before seizure induction; higher ED50 values than audiogenic model
GAERS rats = test: Spontaneous SWDs in GAERS rats; type: in vivo
[7] = Water solubility of the active ingredient
mice [8] = test: Corneal kindling of mice; type: in vivo

**Q.** For CC[C@@H](C(N)=O)N1CCCC1=O [Levetiracetam], which “protection against clonic convulsions” value [1] is on record?
**A.** protected against the expression of clonic convulsions

**Q.** What about the “effect on epileptiform responses induced by high-K+/low-Ca2+ and by bicuculline” value (rat hippocampal slices [2]) of the same compound?
**A.** reduces epileptiform responses

**Q.** And the “dose from which significant suppression in motor-seizure severity was induced” value [3]?
**A.** 170 mg/kg

**Q.** And the “dose significantly reducing after-discharge duration” value [3]?
**A.** > 1700 mg/kg

**Q.** And the “effect on rate of spontaneous field bursting” value (rat hippocampal slices [4])?
**A.** not

**Q.** And the “effect on epileptiform responses (evoked PS1 amplitude, repetitive PSs)” value (rat hippocampal slices [4])?
**A.** reduced these epileptiform responses

**Q.** For CCC[C@@H]1CC(=O)N([C@@H](CC)C(N)=O)C1 [Brivaracetam, (2S)-2-[(4R)-2-oxo-4-propyl-pyrrolidin-1-yl]butanamide], which “protection against clonic convulsions” value [1] is on record?
**A.** protected against the expression of clonic convulsions

**Q.** And the “protection against clonic convulsions induced by pentylenetetrazol” value (mice [5])?
**A.** protected against clonic convulsions

**Q.** And the “protection against tonic hindlimb extension induced by maximal electroshock” value (mice [6])?
**A.** protected

**Q.** What about the “dose from which significant suppression in motor-seizure severity was induced” value [3] of the same compound?
**A.** 21.2 mg/kg

**Q.** And the “dose significantly reducing after-discharge duration” value [3]?
**A.** 212.3 mg/kg

**Q.** And the “dose from which spontaneous SWDs were significantly suppressed” value (GAERS rats)?
**A.** 2.1 mg/kg

**Q.** What about the “dose giving complete inhibition of spontaneous SWDs” value (GAERS rats; highest dose tested) of the same compound?
**A.** 67.9 mg/kg

**Q.** And the solubility [7]?
**A.** ~700 mg/mL (≈ 3300 mM)

**Q.** What about the “effect on rate of spontaneous field bursting” value (rat hippocampal slices [4]) of the same compound?
**A.** reduced the rate of this spontaneous bursting

**Q.** And the “effect on epileptiform responses (evoked PS1 amplitude, repetitive PSs)” value (rat hippocampal slices [4])?
**A.** reduced these epileptiform responses

**Q.** And the “incidence of generalized motor seizures after termination of treatment” value (mice [8]; continued corneal stimulations, group previously treated with the highest dose)?
**A.** persistent reduction in the incidence of generalized motor seizures

**Q.** And the “incidence of generalized motor seizures” value (mice [8]; pretreatment during corneal kindling)?
**A.** significant reduction in the incidence of generalized motor seizures

**Q.** What about the BCS class (BCS classification) of the same compound?
**A.** BCS I

— patent US8563036B2, “Pharmaceutical compositions comprising Brivaracetam” (UCB Pharma, S.A., priority 2009, dated 2013)
